The values below come from ChEMBL document CHEMBL1201862, “PubChem BioAssay data set” (2004).

SMILES strings stand for the structures.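 Cultured in 96-well plates, cells were exposed to test compound for 48 hours across five concentrations. Abbreviation: GI50, concentration required for 50% inhibition of growth.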 The source made the active and inactive calls. Cut-off read from the data, not from the text of the source: active = GI50 up to about 1.1 µM and inactive = higher.

Test systems include SF-295; CAKI-1; LOX IMVI; K562; TK-10; A498; RPMI-8226; CCRF-CEM; SF-268; HCC 2998; UACC-257; OVCAR-5; NCI-H226; SN12C; UACC-62; HL-60; U-251; SW-620; RXF 393; Hs-578T.
Assay in all cases: inhibition of tumour cell growth, NCI panel, 48 h

Turning to `NC(=O)C12C3C4C1C1C2C3C41C(N)=O` (stereo unspecified), the GI50 with SF-295, in the experiment on CAKI-1, in the experiment on LOX IMVI, in the experiment with K562, in the experiment on TK-10 and in the experiment with A498 was > 100 µM (inactive) in each case. Further, the GI50 in the experiment with RPMI-8226, in the experiment with CCRF-CEM, with SF-268, with HCC 2998, with UACC-257 and in the experiment with OVCAR-5 was > 100 µM (inactive) in each case. Also, the GI50 with NCI-H226, in the experiment on SN12C, with UACC-62, with HL-60, in the experiment on U-251 and in the experiment on SW-620 was > 100 µM (inactive) in each case. The GI50 in the experiment on RXF 393 is > 100 µM (inactive).

On to `Cc1ccc(-c2ccc(Nc3c4ccccc4nc4ccccc34)cc2)cn1`, for which the GI50 with SF-295 was 2.37 µM (inactive); in the experiment with Hs-578T, 5 µM (inactive); with CAKI-1, 2.72 µM (inactive); with LOX IMVI, 2.71 µM (inactive); in the experiment on K562, 3.66 µM (inactive); in the experiment on TK-10, 9.14 µM (inactive). Moreover, the GI50 in the experiment with RPMI-8226 is 1.92 µM (inactive); in the experiment with SF-268, 8.75 µM (inactive); in the experiment on HCC 2998, 29 µM (inactive); with UACC-257, 7.13 µM (inactive); in the experiment with OVCAR-5, 19.5 µM (inactive); in the experiment on SN12C it was 3.89 µM (inactive). The GI50 in the experiment with UACC-62 is 3.08 µM (inactive); in the experiment on SW-620, 4.01 µM (inactive).

Regarding `CC1=CC(O)(c2ccccc2)C(N2CCOCC2)N1O` (stereo unspecified), the GI50 with SF-295, in the experiment on Hs-578T, in the experiment on CAKI-1, in the experiment on LOX IMVI, with K562 and in the experiment with TK-10 was > 100 µM (inactive) throughout. The GI50 with RPMI-8226 is > 100 µM (inactive); in the experiment on CCRF-CEM it was 91.4 µM (inactive); in the experiment on SF-268, > 100 µM (inactive); in the experiment with HCC 2998, > 100 µM (inactive); with UACC-257, > 100 µM (inactive); with OVCAR-5 it was > 100 µM (inactive). Further, the GI50 in the experiment on NCI-H226, in the experiment with SN12C, in the experiment with U-251 and in the experiment with SW-620 was > 100 µM (inactive) throughout.

Regarding `CC1(C)C(=S)C(C)(C)C1=S`, the GI50 with Hs-578T, in the experiment with LOX IMVI, in the experiment with K562, with TK-10, with RPMI-8226 and in the experiment on SF-268 was > 100 µM (inactive) throughout. Also, the GI50 with HCC 2998, in the experiment with UACC-257, with OVCAR-5, with NCI-H226, with SN12C and in the experiment on UACC-62 was > 100 µM (inactive) throughout. Moreover, the GI50 in the experiment with U-251 and in the experiment with SW-620 was > 100 µM (inactive) in each case.

On to `CCOC(=O)C(=Cc1cc(OC)ccc1OC)C(=O)OCC`, for which the GI50 in the experiment on SF-295 is 12.4 µM (inactive); in the experiment on CAKI-1, 13.6 µM (inactive); in the experiment with LOX IMVI, 3.83 µM (inactive); in the experiment with K562, 3.42 µM (inactive); in the experiment on TK-10, > 10 µM (inactive); in the experiment with A498, 14.4 µM (inactive). Besides, the GI50 with RPMI-8226 is 3.44 µM (inactive); in the experiment on CCRF-CEM, 2.95 µM (inactive); with SF-268, 5.36 µM (inactive); in the experiment with HCC 2998 it was 20 µM (inactive); with OVCAR-5, 6.27 µM (inactive); in the experiment with NCI-H226 it was 10.6 µM (inactive). Besides, the GI50 in the experiment on SN12C was 5.27 µM (inactive); in the experiment with UACC-62, 1.83 µM (inactive); in the experiment with HL-60 it was 1.96 µM (inactive); with U-251 it was 4.79 µM (inactive); in the experiment on SW-620 it was 3.52 µM (inactive); with RXF 393, 1.83 µM (inactive).

`CCCCCC(C(O)C#N)C(O)(C(F)(F)F)C(F)(F)F` (stereo unspecified): the GI50 in the experiment with SF-295, in the experiment on Hs-578T, in the experiment on CAKI-1, in the experiment with LOX IMVI, in the experiment with K562 and in the experiment with TK-10 was > 10 µM (inactive) throughout. Moreover, the GI50 with RPMI-8226, with CCRF-CEM, in the experiment on SF-268, with HCC 2998, with UACC-257 and in the experiment with OVCAR-5 was > 10 µM (inactive) throughout. In addition, the GI50 in the experiment with SN12C, with UACC-62, in the experiment on HL-60, in the experiment on U-251 and with SW-620 was > 10 µM (inactive) each time.

For `CC1CC(=O)C(CC(=O)O)C1C(C(=O)C(=O)Nc1c(C#N)cccc1[N+](=O)[O-])[N+](=O)[O-]` (stereo unspecified), the GI50 with SF-295, in the experiment on CAKI-1, in the experiment on LOX IMVI, with K562, in the experiment on TK-10 and with A498 was > 100 µM (inactive) throughout. The GI50 in the experiment on RPMI-8226, in the experiment on CCRF-CEM, in the experiment with SF-268, in the experiment on HCC 2998, with UACC-257 and with OVCAR-5 was > 100 µM (inactive) in each case. The GI50 in the experiment on NCI-H226, in the experiment on UACC-62, with HL-60, in the experiment on U-251, in the experiment on SW-620 and in the experiment on RXF 393 was > 100 µM (inactive) in each case.

Take `CCCCCCCCCCCCCC(=O)O[C@H]1CC[C@H](NC(=O)[C@H](OC)[C@H](O)[C@@H](O)[C@H](O)/C=C/C(C)C)C(=O)N(C)C1` [BENGAMIDE B]: the GI50 with SF-295 is 0.00675 µM (active); in the experiment on CAKI-1 it was 0.0216 µM (active); in the experiment with LOX IMVI, 0.00216 µM (active); with K562, 0.00811 µM (active); in the experiment on TK-10, 0.179 µM (active); with A498 it was > 15 µM (inactive). Also, the GI50 in the experiment with RPMI-8226 is 0.0895 µM (active); with CCRF-CEM it was 0.0122 µM (active); in the experiment on SF-268, 0.0036 µM (active); with HCC 2998 it was 0.00195 µM (active); in the experiment with UACC-257 it was 0.0331 µM (active); with OVCAR-5 it was 4.65 µM (inactive). Also, the GI50 with NCI-H226 is 0.00592 µM (active); in the experiment with SN12C, 0.00419 µM (active); in the experiment on UACC-62, 0.00807 µM (active); in the experiment with HL-60, 0.01 µM (active); with U-251 it was 0.00286 µM (active); with SW-620, 0.00433 µM (active). For the same molecule, the GI50 in the experiment with RXF 393 was 0.0615 µM (active).

For `COc1cc(OC)c(C2c3cc4c(cc3OC(N3CCCC3)C2C)OCO4)c(OC)c1` (stereo unspecified), the GI50 in the experiment with SF-295 is 8.97 µM (inactive); with Hs-578T it was 3.77 µM (inactive); in the experiment with LOX IMVI it was 11.9 µM (inactive); in the experiment on K562, 19.7 µM (inactive); in the experiment on TK-10, 19.1 µM (inactive); in the experiment on RPMI-8226, 16.4 µM (inactive). The GI50 is 15.2 µM (inactive) in the experiment on CCRF-CEM; 8.49 µM (inactive) in the experiment on SF-268; 10.1 µM (inactive) in the experiment with HCC 2998; 19.2 µM (inactive) in the experiment on UACC-257; 18.5 µM (inactive) with OVCAR-5; 15.3 µM (inactive) in the experiment on SN12C. Moreover, the GI50 was 16.6 µM (inactive) in the experiment on UACC-62 and 9.59 µM (inactive) in the experiment on SW-620.

Turning to `CCCCN(CCCC)CC(C(=O)Nc1ccc([N+](=O)[O-])cc1[N+](=O)[O-])/C(C)=N\NC(=O)C[N+](C)(C)C` (stereo unspecified), the GI50 was > 100 µM (inactive) in the experiment with SF-295; 42.7 µM (inactive) in the experiment with CAKI-1; 33.3 µM (inactive) in the experiment with LOX IMVI; 28.8 µM (inactive) in the experiment on K562; > 100 µM (inactive) with TK-10; 52.7 µM (inactive) in the experiment with A498. Besides, the GI50 in the experiment on RPMI-8226 is 27.7 µM (inactive); with CCRF-CEM, 41.8 µM (inactive); in the experiment on SF-268, > 100 µM (inactive); with HCC 2998 it was > 100 µM (inactive); in the experiment with UACC-257 it was > 100 µM (inactive); with OVCAR-5, > 100 µM (inactive). Also, the GI50 in the experiment on NCI-H226 is > 100 µM (inactive); in the experiment with SN12C it was > 100 µM (inactive); in the experiment with UACC-62 it was > 100 µM (inactive); in the experiment on HL-60 it was > 100 µM (inactive); with U-251 it was > 100 µM (inactive); in the experiment on RXF 393 it was 92.7 µM (inactive).

As to `COC(=O)C(=O)C(C(=O)C(=O)Nc1ccc(OC)cc1[N+](=O)[O-])c1nc2ccc([N+](=O)[O-])cc2nc1O` (stereo unspecified), the GI50 with SF-295, with CAKI-1, with LOX IMVI, with K562, with TK-10 and in the experiment on A498 was > 100 µM (inactive) throughout. Besides, the GI50 in the experiment on RPMI-8226, with CCRF-CEM, in the experiment on SF-268, with HCC 2998, in the experiment on UACC-257 and with OVCAR-5 was > 100 µM (inactive) throughout. The GI50 in the experiment on NCI-H226, in the experiment on SN12C, with UACC-62, in the experiment on HL-60, in the experiment on U-251 and in the experiment on SW-620 was > 100 µM (inactive) each time. Besides, in the experiment on RXF 393, the GI50 is > 100 µM (inactive).
